# Data published in the supplement of paper PMC11061612.
# Key:
# Capivasertib = compound: C1CN(CCC1(C(=O)N[C@@H](CCO)C2=CC=C(C=C2)Cl)N)C3=NC=NC4=C3C=CN4 [Capivasertib]; settings: max 10 µM
# Method in brief: (§1)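 Following 24 hours at 37°C and 5% CO2, cancer cell lines in 1536-well plates with 7.5 μl DMEM/F12 or RPMI and 10% FBS were dosed for 72 hours, final DMSO typically being 0.2%. CellTiter-Glo 2.0 luminescence, scaled between blank-well and DMSO-well means, gave the viability readout. Dose responses were fitted to a two-parameter logistic curve with a non-linear mixed effects model, and the single-agent IC50 was derived from this fit.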
# AZD1775 = compound: C=CCn1c(=O)c2cnc(Nc3ccc(N4CCN(C)CC4)cc3)nc2n1-c1cccc(C(C)(C)O)n1 [AZD1775]; settings: max 3 µM
# Method in brief: as §1
# Trametinib = compound: CC(=O)Nc1cccc(-n2c(=O)n(C3CC3)c(=O)c3c(Nc4ccc(I)cc4F)n(C)c(=O)c(C)c32)c1 [Trametinib]; settings: max 1 µM
# Method in brief: as §1
# Palbociclib = compound: CC(=O)c1c(C)c2cnc(Nc3ccc(N4CCNCC4)cn3)nc2n(C2CCCC2)c1=O [Palbociclib]; settings: max 10 µM
# Method in brief: as §1
# AZD1390 = compound: CC(C)n1c(=O)n(C)c2cnc3cc(F)c(-c4ccc(OCCCN5CCCCC5)nc4)cc3c21 [AZD1390]; settings: max 0.3 µM
# Method in brief: as §1
# Venetoclax = compound: CC1(C)CCC(CN2CCN(c3ccc(C(=O)NS(=O)(=O)c4ccc(NCC5CCOCC5)c([N+](=O)[O-])c4)c(Oc4cnc5[nH]ccc5c4)c3)CC2)=C(c2ccc(Cl)cc2)C1 [Venetoclax]; settings: max 1 µM
# Method in brief: as §1
# Dasatinib = compound: CC1=C(C(=CC=C1)Cl)NC(=O)C2=CN=C(S2)NC3=CC(=NC(=N3)C)N4CCN(CC4)CCO [Dasatinib]; settings: max 2 µM
# Method in brief: as §1
# SG3199 = compound: CC1=CN2[C@@H](C1)C=NC3=CC(=C(C=C3C2=O)OC)OCCCCCOC4=C(C=C5C(=C4)N=C[C@@H]6CC(=CN6C5=O)C)OC [SG3199]; settings: max 0.001 µM
# Method in brief: as §1
# AZD2811 = compound: CCN(CCO)CCCOc1ccc2c(Nc3cc(CC(=O)Nc4cccc(F)c4)[nH]n3)ncnc2c1 [AZD2811]; settings: max 1 µM
# Method in brief: as §1
# SN-38 = compound: CCc1c2c(nc3ccc(O)cc13)-c1cc3c(c(=O)n1C2)COC(=O)[C@]3(O)CC [SN-38]; settings: max 0.3 µM
# Method in brief: as §1
# AZD0156 = compound: CN(C)CCCOc1ccc(-c2ccc3ncc4c(c3c2)n(C2CCOCC2)c(=O)n4C)cn1 [AZD0156]; settings: max 3 µM
# Method in brief: as §1
# AZD4320 = compound: CN(CC[C@H](CSC1=CC=CC=C1)NC2=C(C=C(C=C2)S(=O)(=O)NC(=O)C3=CC=C(C=C3)N4CCC(CC4)[C@H](C5=CC=CC=C5C6=CC=C(C=C6)Cl)O)S(=O)(=O)C(F)(F)F)CCO [AZD4320]; settings: max 1 µM
# Method in brief: as §1
# Alisertib = compound: COc1cc(Nc2ncc3c(n2)-c2ccc(Cl)cc2C(c2c(F)cccc2OC)=NC3)ccc1C(=O)O [Alisertib]; settings: max 10 µM
# Method in brief: as §1
# Gefitinib = compound: COc1cc2ncnc(Nc3ccc(F)c(Cl)c3)c2cc1OCCCN1CCOCC1 [Gefitinib]; settings: max 10 µM
# Method in brief: as §1
# Prexasertib = compound: COc1cccc(OCCCN)c1-c1cc(Nc2cnc(C#N)cn2)n[nH]1 [Prexasertib]; settings: max 1 µM
# Method in brief: as §1
# Doxorubicin = compound: COc1cccc2c1C(=O)c1c(O)c3c(c(O)c1C2=O)C[C@@](O)(C(=O)CO)C[C@@H]3O[C@H]1C[C@H](N)[C@H](O)[C@H](C)O1 [Doxorubicin]; settings: max 1 µM
# Method in brief: as §1
# AZD5153 = compound: COc1nnc2ccc(N3CCC(c4ccc(OCCN5CCN(C)C(=O)[C@H]5C)cc4)CC3)nn12 [AZD5153]; settings: max 1 µM
# Method in brief: as §1
# Lapatinib = compound: CS(=O)(=O)CCNCc1ccc(-c2ccc3ncnc(Nc4ccc(OCc5cccc(F)c5)c(Cl)c4)c3c2)o1 [Lapatinib]; settings: max 10 µM
# Method in brief: as §1
# AZD8186 = compound: C[C@@H](Nc1cc(F)cc(F)c1)c1cc(C(=O)N(C)C)cc2c(=O)cc(N3CCOCC3)oc12 [AZD8186]
# Method in brief: as §1
# Crizotinib = compound: C[C@@H](Oc1cc(-c2cnn(C3CCNCC3)c2)cnc1N)c1c(Cl)ccc(F)c1Cl [Crizotinib]; settings: max 10 µM
# Method in brief: as §1
# Savolitinib = compound: C[C@@H](c1ccc2nccn2c1)n1nnc2ncc(-c3cnn(C)c3)nc21 [Savolitinib]; settings: max 1 µM
# Method in brief: as §1
# AZD6738 = compound: C[C@@H]1COCCN1C2=NC(=NC(=C2)C3(CC3)[S@](=N)(=O)C)C4=C5C=CNC5=NC=C4 [AZD6738]; settings: max 10 µM
# Method in brief: as §1
# AZD5991 = compound: Cc1c2c(nn1C)CSCc1cc(n(C)n1)CSc1cc(c3ccccc3c1)OCCCc1c(C(=O)O)n(C)c3c-2c(Cl)ccc13 [AZD5991]; settings: max 1 µM
# Method in brief: as §1
# AZD7648 = compound: Cc1cc2ncnn2cc1Nc1ncc2c(n1)n(C1CCOCC1)c(=O)n2C [AZD7648]; settings: max 10 µM
# Method in brief: as §1
# Taselisib = compound: Cc1nc(-c2cn3c(n2)-c2ccc(-c4cnn(C(C)(C)C(N)=O)c4)cc2OCC3)n(C(C)C)n1 [Taselisib]; settings: max 10 µM
# Method in brief: as §1
# Selumetinib = compound: Cn1cnc2c(F)c(Nc3ccc(Br)cc3Cl)c(C(=O)NOCCO)cc21 [Selumetinib]; settings: max 10 µM
# Method in brief: as §1
# MK-2206 = compound: NC1(c2ccc(-c3nc4ccn5c(=O)[nH]nc5c4cc3-c3ccccc3)cc2)CCC1 [MK-2206]; settings: max 10 µM
# Method in brief: as §1
# Olaparib = compound: O=C(c1cc(Cc2n[nH]c(=O)c3ccccc23)ccc1F)N1CCN(C(=O)C2CC2)CC1 [Olaparib]; settings: max 10 µM
# Method in brief: as §1
# Carboplatin = compound: C1CC(C1)(C(=O)[O-])C(=O)[O-].N.N.[Pt+2] [Carboplatin]; settings: max 10 µM
# Method in brief: as §1
# AZD5363 = compound: C1CN(CCC1(C(=O)N[C@@H](CCO)C2=CC=C(C=C2)Cl)N)C3=NC=NC4=C3C=CN4 [AZD5363]; settings: max 10 µM
# Method in brief: as §1
# Paclitaxel = compound: CC(=O)O[C@H]1C(=O)[C@@]2(C)[C@H]([C@H](OC(=O)c3ccccc3)[C@]3(O)C[C@H](OC(=O)[C@H](O)[C@@H](NC(=O)c4ccccc4)c4ccccc4)C(C)=C1C3(C)C)[C@]1(OC(C)=O)CO[C@@H]1C[C@@H]2O [Paclitaxel]; settings: max 3 µM
# Method in brief: as §1
# Etoposide = compound: COc1cc([C@@H]2c3cc4c(cc3[C@@H](O[C@@H]3O[C@@H]5CO[C@@H](C)O[C@H]5[C@H](O)[C@H]3O)[C@H]3COC(=O)[C@H]23)OCO4)cc(OC)c1O [Etoposide]; settings: max 10 µM
# Method in brief: as §1
# SRA737 = compound: N#Cc1cnc(Nc2cc(NC[C@H]3CNCCO3)c(C(F)(F)F)cn2)cn1 [SRA737]; settings: max 10 µM
# Method in brief: as §1
# [1] = compound: O=C(Nc1ccc2[nH]nc(-c3ccncc3)c2c1)[C@@H]1CCN(CC(=O)N2CCN(c3ccc(-c4ncccn4)cc3)CC2)C1; settings: max 5 µM
# Method in brief: as §1
# 5-Fluorouracil = compound: O=c1[nH]cc(F)c(=O)[nH]1 [5-Fluorouracil]; settings: max 20 µM
# Method in brief: as §1
cell line,measurement,setting,value
H9 (T-Cell Non-Hodgkin's Lymphoma),"IC50, cell viability 72 h",Capivasertib,3.07 µM
same,"IC50, cell viability 72 h",AZD1775,0.416 µM
same,"IC50, cell viability 72 h",Trametinib,0.00271 µM
same,"IC50, cell viability 72 h",Palbociclib,> 10 µM
same,"IC50, cell viability 72 h",AZD1390,> 0.3 µM
same,"IC50, cell viability 72 h",Venetoclax,> 1 µM
same,"IC50, cell viability 72 h",Dasatinib,> 2 µM
same,"IC50, cell viability 72 h",SG3199,> 0.001 µM
same,"IC50, cell viability 72 h",AZD2811,0.026 µM
same,"IC50, cell viability 72 h",SN-38,0.00662 µM
same,"IC50, cell viability 72 h",AZD0156,> 3 µM
same,"IC50, cell viability 72 h",AZD4320,0.142 µM
same,"IC50, cell viability 72 h",Alisertib,0.115 µM
same,"IC50, cell viability 72 h",Gefitinib,7.12 µM
same,"IC50, cell viability 72 h",Prexasertib,0.00726 µM
same,"IC50, cell viability 72 h",Doxorubicin,0.0838 µM
same,"IC50, cell viability 72 h",AZD5153,0.00623 µM
same,"IC50, cell viability 72 h",Lapatinib,9.54 µM
same,"IC50, cell viability 72 h",AZD8186; max 3 µM,> 3 µM
same,"IC50, cell viability 72 h",Crizotinib,2.36 µM
same,"IC50, cell viability 72 h",Savolitinib,> 1 µM
same,"IC50, cell viability 72 h",AZD6738,1.31 µM
same,"IC50, cell viability 72 h",AZD5991,0.413 µM
same,"IC50, cell viability 72 h",AZD7648,> 10 µM
same,"IC50, cell viability 72 h",Taselisib,> 10 µM
same,"IC50, cell viability 72 h",Selumetinib,0.0536 µM
same,"IC50, cell viability 72 h",MK-2206,0.818 µM
same,"IC50, cell viability 72 h",Olaparib,> 10 µM
IM-95 (Gastric Carcinoma),"IC50, cell viability 72 h",Capivasertib,> 10 µM
same,"IC50, cell viability 72 h",AZD1775,> 3 µM
same,"IC50, cell viability 72 h",Trametinib,> 1 µM
same,"IC50, cell viability 72 h",Palbociclib,> 10 µM
same,"IC50, cell viability 72 h",AZD1390,> 0.3 µM
same,"IC50, cell viability 72 h",Venetoclax,> 1 µM
same,"IC50, cell viability 72 h",Dasatinib,> 2 µM
same,"IC50, cell viability 72 h",SG3199,> 0.001 µM
same,"IC50, cell viability 72 h",AZD2811,> 1 µM
same,"IC50, cell viability 72 h",SN-38,> 0.3 µM
same,"IC50, cell viability 72 h",AZD0156,> 3 µM
same,"IC50, cell viability 72 h",AZD4320,0.398 µM
same,"IC50, cell viability 72 h",Alisertib,> 10 µM
same,"IC50, cell viability 72 h",Gefitinib,> 10 µM
same,"IC50, cell viability 72 h",Prexasertib,> 1 µM
same,"IC50, cell viability 72 h",Doxorubicin,> 1 µM
same,"IC50, cell viability 72 h",AZD5153,> 1 µM
same,"IC50, cell viability 72 h",Lapatinib,> 10 µM
same,"IC50, cell viability 72 h",AZD8186; max 3 µM,> 3 µM
same,"IC50, cell viability 72 h",Crizotinib,> 10 µM
same,"IC50, cell viability 72 h",Savolitinib,> 1 µM
same,"IC50, cell viability 72 h",AZD6738,> 10 µM
same,"IC50, cell viability 72 h",AZD5991,0.276 µM
same,"IC50, cell viability 72 h",AZD7648,> 10 µM
same,"IC50, cell viability 72 h",Taselisib,7.24 µM
same,"IC50, cell viability 72 h",Selumetinib,> 10 µM
same,"IC50, cell viability 72 h",MK-2206,> 10 µM
same,"IC50, cell viability 72 h",Olaparib,> 10 µM
KP-3 (Pancreatic Carcinoma),"IC50, cell viability 72 h",Carboplatin,> 10 µM
same,"IC50, cell viability 72 h",AZD5363,> 10 µM
same,"IC50, cell viability 72 h",AZD1775,> 3 µM
same,"IC50, cell viability 72 h",Trametinib,> 1 µM
same,"IC50, cell viability 72 h",Paclitaxel,> 3 µM
same,"IC50, cell viability 72 h",Palbociclib,> 10 µM
same,"IC50, cell viability 72 h",AZD1390,> 0.3 µM
same,"IC50, cell viability 72 h",Venetoclax,> 1 µM
same,"IC50, cell viability 72 h",Dasatinib,> 2 µM
same,"IC50, cell viability 72 h",SG3199,> 0.001 µM
same,"IC50, cell viability 72 h",AZD2811,> 1 µM
same,"IC50, cell viability 72 h",SN-38,> 0.3 µM
same,"IC50, cell viability 72 h",AZD0156,> 3 µM
same,"IC50, cell viability 72 h",AZD4320,> 1 µM
same,"IC50, cell viability 72 h",Alisertib,> 10 µM
same,"IC50, cell viability 72 h",Etoposide,> 10 µM
same,"IC50, cell viability 72 h",Gefitinib,> 10 µM
same,"IC50, cell viability 72 h",Prexasertib,> 1 µM
same,"IC50, cell viability 72 h",Doxorubicin,> 1 µM
same,"IC50, cell viability 72 h",AZD5153,> 1 µM
same,"IC50, cell viability 72 h",Lapatinib,> 10 µM
same,"IC50, cell viability 72 h",AZD8186; max 10 µM,> 10 µM
same,"IC50, cell viability 72 h",Crizotinib,> 10 µM
same,"IC50, cell viability 72 h",Savolitinib,> 1 µM
same,"IC50, cell viability 72 h",AZD6738,> 10 µM
same,"IC50, cell viability 72 h",AZD5991,> 1 µM
same,"IC50, cell viability 72 h",AZD7648,> 10 µM
same,"IC50, cell viability 72 h",Taselisib,> 10 µM
same,"IC50, cell viability 72 h",Selumetinib,> 10 µM
same,"IC50, cell viability 72 h",SRA737,> 10 µM
same,"IC50, cell viability 72 h",MK-2206,> 10 µM
same,"IC50, cell viability 72 h",[1],> 5 µM
same,"IC50, cell viability 72 h",Olaparib,> 10 µM
same,"IC50, cell viability 72 h",5-Fluorouracil,> 20 µM
